Laboratory results from BindingDB's records for doi:10.1021/jm040209d (University of Illinois At Urbana-Champaign, 2005).

Each compound was assayed against Farnesyl diphosphate synthase (Leishmania major) (assay: Binding affinity towards Farnesyl diphosphate synthase from leishmania major).

| SMILES | Ki [nM] |
| --- | --- |
| O=P([O-])(O)C(O)(C[n+]1cccc(F)c1)P(=O)(O)O (configuration not stated) [hydrogen 2-(3-fluoropyridinium-1-yl)-1-hydroxy-1-phosphonoethylphosphonate] | 50 |
| O=P([O-])(O)C(O)(C[n+]1cccc(Cc2ccccc2)c1)P(=O)(O)O (configuration not stated) [hydrogen 2-(3-benzylpyridinium-1-yl)-1-hydroxy-1-phosphonoethylphosphonate] | 160 |
| O=P([O-])(O)C(O)(C[n+]1cccc(-c2ccc(O)cc2)c1)P(=O)(O)O (configuration not stated) [sodium hydrogen 1-hydroxy-2-[3-(4-oxidophenyl)pyridinium-1-yl]-1-phosphonoethylphosphonate] | 75 |
| Cc1cccc(Cc2ccc[n+](CC(O)(P(=O)([O-])O)P(=O)(O)O)c2)c1 (configuration not stated) [hydrogen 1-hydroxy-2-[3-(3-methylbenzyl)pyridinium-1-yl]-1-phosphonoethylphosphonate] | 70 |

These reach a lower Ki. Values come first.

| Ki [nM] | SMILES |
| --- | --- |
| 38 | Cc1ccc[n+](CC(O)(P(=O)([O-])O)P(=O)(O)O)c1 (configuration not stated) [hydrogen 1-hydroxy-2-(3-methylpyridinium-1-yl)-1-phosphonoethylphosphonate] |
| 30 | COc1ccc[n+](CC(O)(P(=O)([O-])O)P(=O)(O)O)c1 (configuration not stated) [hydrogen 1-hydroxy-2-(3-methoxypyridinium-1-yl)-1-phosphonoethylphosphonate] |
| 20 | CCCCc1ccc[n+](CC(O)(P(=O)([O-])O)P(=O)(O)O)c1 (configuration not stated) [hydrogen 2-(3-butylpyridinium-1-yl)-1-hydroxy-1-phosphonoethylphosphonate] |
